According to publication PMC12040169 (PLOS Biology, 2025):

Test: in vitro
Conditions: human, hela cells, % viability

First: Cc1nn(CC(C)C)c(C)c1CCC(=O)N(C)Cc1c(C)nn(-c2ccccc2)c1C [CBK295301]
Second: COc1ccc(-c2n[nH]c(=S)n2CCC(=O)NCCc2cc(C)n(-c3ccccc3)c2C)cc1 [CBK295632]
The viability at 28.5 h, 10 µM of the first is higher: 108% for the first, 97.6% for the second.

First: Cc1cc(COC(=O)c2nn(-c3ccc(F)cc3)c3c2CCCC3)on1 [CBK295305]
Second: O=C(CCc1nc(O)c2c3c(sc2n1)CCCC3)NCC(=O)Nc1ccccc1Br [CBK295348]
The viability at 28.5 h, 10 µM of the first is higher: 105% for the first, 101% for the second.

Compared with `CCOC(=O)c1ccc(S(=O)(=O)Nc2cc(C(=O)O)ccc2F)cc1` [CBK295308], `Cc1ccc(C(CC(=O)O)NC(=O)c2ccc(S(=O)(=O)N3CCCC(C)C3)cc2)cc1` (stereo not drawn) [CBK295345] is higher in viability at 28.5 h, 10 µM: 84% for the first, 95.7% for the second.

First: Cc1cc(C(=O)CSc2nnc(C3CC3)[nH]2)c(C)n1-c1cccc(C(F)(F)F)c1 [CBK295310]
Second: Cc1cc(-n2c(C)cc(C(=O)CSc3n[nH]c(=O)n3CC3CCCO3)c2C)no1 (stereo not drawn) [CBK295589]
The viability at 28.5 h, 10 µM of the first is lower: 80.6% for the first, 112% for the second.

Going from `C=CCn1c(Cc2csc(NC(=O)Cc3cc(OC)c(OC)c(OC)c3)n2)n[nH]c1=S` [CBK295311] to `C=CCn1c(Cc2csc(NC(=O)Cc3ccc(Cl)cc3)n2)n[nH]c1=S` [CBK295359], the viability at 28.5 h, 10 µM rises from 87.1% to 96.3%.

Going from `O=c1[nH]c2ccc(NS(=O)(=O)c3ccc4c(c3)OCCCO4)cc2[nH]1` [CBK295315] to `O=C(NCc1nc2ccccc2s1)c1ccc2c(c1)OCCO2` [CBK295325], the viability at 28.5 h, 10 µM rises from 87.7% to 107%.

Going from `O=[N+]([O-])c1ccc(NC(c2ccccc2)C2CC2)nc1` (stereo not drawn) [CBK295317] to `O=C(CSc1n[nH]c(=O)n1C1CC1)NCCCSc1ccccc1` [CBK295620], the viability at 28.5 h, 10 µM rises from 96.6% to 104%.

First: C=CCn1c(Cc2csc(NC(=O)c3cnc(C)cn3)n2)n[nH]c1=S [CBK295319]
Second: C=CCn1c(Cc2csc(NC(=O)c3cc(C)cc(C)c3)n2)n[nH]c1=S [CBK295358]
The viability at 28.5 h, 10 µM of the first is higher: 90.4% for the first, 77% for the second.

Going from `O=C(Cn1nc(C(=O)O)c2ccccc2c1=O)NCc1ccc(Cl)cc1Cl` [CBK295320] to `CCCCCC(=O)Nc1ccc(C(=O)Cn2nc(C(=O)O)c3ccccc3c2=O)cc1` [CBK295628], the viability at 28.5 h, 10 µM rises from 85.4% to 104%.

Compared with `COc1ccc(NC(=O)C(C)n2nc(C(=O)O)c3ccccc3c2=O)cc1` (stereo not drawn) [CBK295322], `COc1ccc(-c2n[nH]c(=S)n2CC(=O)Nc2ccc(NC(=O)CC(C)C)cc2)cc1` [CBK295342] is lower in viability at 28.5 h, 10 µM: 107% for the first, 100% for the second.

Going from `Cc1ccc(C(=O)Nc2nc(C)c(-c3n[nH]c(=S)n3C)s2)cn1` [CBK295327] to `Cc1nc(NC(=O)c2cccc(NC(=O)C3CCCO3)c2)sc1-c1n[nH]c(=S)n1C` (stereo not drawn) [CBK295341], the viability at 28.5 h, 10 µM falls from 91.8% to 86.9%.

Compared with `C=CCn1c(Cc2csc(NC(=O)c3cc4ccccc4o3)n2)n[nH]c1=S` [CBK295329], `Cc1cc(C(=O)Nc2nnc(Cc3ccccc3)s2)c2ccccc2n1` [CBK295607] is lower in viability at 28.5 h, 10 µM: 104% for the first, 93.3% for the second.

Going from `COc1cc2c(cc1OC)CN(C(=O)c1ccc3[nH]cnc3c1)CC2` [CBK295331] to `Nc1ncnc2sc3c(c12)CCN(C(=O)c1ccc2nccnc2c1)C3` [CBK295588], the viability at 28.5 h, 10 µM rises from 52.8% to 102%.

Going from `CC1CCN(S(=O)(=O)c2ccc(NC(=O)C3=COCCO3)cc2)CC1` [CBK295332] to `O=C(O)c1ccc2c(c1)CCN2S(=O)(=O)c1ccc(S(=O)(=O)N2CCOCC2)cc1` [CBK295625], the viability at 28.5 h, 10 µM falls from 102% to 97.1%.

First: CCc1ccc(CN(C)C(=O)COC(=O)c2cc(-c3ccccc3)nc3onc(C)c23)cc1 [CBK295334]
Second: Nc1ncccc1C(=O)OCc1ccc(-c2ccccc2)cc1 [CBK295353]
The viability at 28.5 h, 10 µM of the first is lower: 89.5% for the first, 94.2% for the second.

Compared with `Cc1cc(NS(=O)(=O)c2ccc(Oc3ccc(-c4ccccc4)cc3)nc2)no1` [CBK295343], `O=C(O)CCc1ccc(S(=O)(=O)Nc2ccccc2Cc2ccccc2)cc1` [CBK295616] is higher in viability at 28.5 h, 10 µM: 90.8% for the first, 99.6% for the second.

Compared with `O=C(c1ccc2[nH]nnc2c1)N1CCN(S(=O)(=O)Cc2ccccc2)CC1` [CBK295346], `CCCc1ccc(S(=O)(=O)N2CCN(CC(=O)Nc3cc(C(C)C)no3)CC2)cc1` [CBK295629] is higher in viability at 28.5 h, 10 µM: 79.3% for the first, 114% for the second.

First: COC(=O)C1=C(C)N(c2ccc(C(=O)O)cc2)C(=O)NC1c1cccc(OC)c1OC (stereo not drawn) [CBK295355]
Second: COc1ccc(C(=O)C=c2[nH]c(=O)c(=Cc3ccc(C(=O)O)cc3)s2)cc1 [CBK295614]
The viability at 28.5 h, 10 µM of the first is higher: 112% for the first, 99.6% for the second.

Compared with `CCCCn1c(SCc2nc(-c3cccc(Cl)c3)no2)n[nH]c1=O` [CBK295356], `O=c1[nH]nc(SCCCOc2ccc(Cl)cc2)n1C1CC1` [CBK295597] is lower in viability at 28.5 h, 10 µM: 116% for the first, 115% for the second.

Going from `Cc1noc(C)c1C(=O)N(C)CC(=O)Nc1ccc(Cl)c(C(F)(F)F)c1` [CBK295363] to `Cc1cccc(C=C(Cl)c2nc3sc(C(=O)O)c(C)c3c(=O)[nH]2)c1` [CBK295626], the viability at 28.5 h, 10 µM falls from 95.7% to 91.6%.

First: CN(C(=O)COC(=O)c1cc(-c2ccco2)nc2ccccc12)C1(C#N)CCCCC1 [CBK295591]
Second: Cc1ccc(C(N)=O)c(OCC(=O)N2c3ccccc3CCC2C)c1 (stereo not drawn) [CBK295633]
The viability at 28.5 h, 10 µM of the first is lower: 93.2% for the first, 93.8% for the second.

Going from `Cc1cccc(OCCNC(=O)CSc2n[nH]c(=O)n2C2CC2)c1` [CBK295599] to `CC(C)(C)NC(=O)CN1CCN(C(=O)CSc2n[nH]c(=O)n2C2CC2)CC1` [CBK295641], the viability at 28.5 h, 10 µM rises from 94.2% to 94.5%.

Compared with `O=C(CNC(=O)C1CC=CCC1C(=O)O)Nc1ccc(N2CCCCCC2)cc1` (stereo not drawn) [CBK295603], `O=C(c1ccc(OC(F)F)cc1)N1CCCc2cc(S(=O)(=O)N3CCCCC3)ccc21` [CBK295621] is higher in viability at 28.5 h, 10 µM: 90.8% for the first, 118% for the second.

Compared with `Cc1c(C=Cc2cc(C(=O)O)c3ccccc3n2)cc(C#N)n1C` [CBK295604], `Cc1ccc(C=C(c2ccccc2)c2nc3sc(C(=O)O)c(C)c3c(=O)[nH]2)s1` [CBK295638] is lower in viability at 28.5 h, 10 µM: 104% for the first, 100% for the second.

First: O=C(Nc1ccnn1Cc1cccs1)c1cc(=O)[nH]c2ccccc12 [CBK295606]
Second: CC1Oc2ccccc2OC1C(=O)Nc1nnc(Cc2ccccc2)s1 (stereo not drawn) [CBK295634]
The viability at 28.5 h, 10 µM of the first is higher: 102% for the first, 90.5% for the second.

First: COc1ccc(N)cc1OCc1cn2ccccc2n1 [CBK295609]
Second: Cc1nc2ccc(C(=O)c3ccccc3O)cn2c(=O)c1CCC(=O)O [CBK295618]
The viability at 28.5 h, 10 µM of the first is lower: 57.2% for the first, 94.5% for the second.

Compared with `Cc1c(C(=O)O)sc2nc(C=Cc3cc([N+](=O)[O-])ccc3Cl)[nH]c(=O)c12` [CBK295613], `COc1ccc(Oc2ccc(C=Cc3nc4sc(C(=O)O)c(C)c4c(=O)[nH]3)cc2[N+](=O)[O-])cc1` [CBK295637] is lower in viability at 28.5 h, 10 µM: 121% for the first, 112% for the second.

Going from `CCCn1c(SCC(=O)Nc2scc(CC(C)C)c2C(=O)OCC)n[nH]c1=O` [CBK295615] to `CC(C)Cn1c(-c2ccc(F)cc2)cnc1SC(C)C(=O)NC(N)=O` (stereo not drawn) [CBK295635], the viability at 28.5 h, 10 µM falls from 98.1% to 91.9%.

First: Cc1c(C(=O)O)sc2nc3c(Cl)cc(C(=O)c4ccccc4O)cn3c(=O)c12 [CBK295619]
Second: Cc1nc2ccccc2c(C)c1C(=O)OCc1nc(N)nc(N(C)C)n1 [CBK295627]
The viability at 28.5 h, 10 µM of the first is higher: 98.5% for the first, 70.6% for the second.

First: CCCn1c(NC(=O)C2CCCN2S(=O)(=O)CC)nc2ccccc21 (stereo not drawn) [CBK295624]
Second: O=c1c2ccsc2ncn1Cc1nnc(-c2ccc(Br)o2)o1 [CBK295642]
The viability at 28.5 h, 10 µM of the first is higher: 96.8% for the first, 88.7% for the second.
